In brackets after ≈: the same amount, converted by molar mass. Read-outs that look alike come from different tables or passages of the source.
Legend:
[1] = test system: Aspergillus terreus; assay: microbe, parasite or virus in culture; type: cell-based; conditions: strain AT1
[2] = Liver microsome stability; type: in vitro ADME; conditions: mouse; murine liver microsomes, NADPH; read-out: MLMS (t1/2)
Method: To examine the potential for first-pass metabolism of analogs in the liver, the stability of analogs in the presence of liver microsome preparations (Eurofins Discovery for human, dog, and rat; Xenotech for mouse) was measured using the method of Kuhnz and […] ([52]). The amount of parent compound remaining after incubation with microsomes in the presence of NADPH over a 30-min time range was measured using a reverse-phase liquid chromatography/mass spectroscopy method that was customized for each compound. Half-lives were calculated using linear regression analysis of several time points.

[3] = test system: Coccidioides spp.; assay: microbe, parasite or virus in culture; type: cell-based
[4] = test system: Mucor spp.; assay: CLSI-based microbroth dilution MIC, spectrum of activity; type: cell-based; conditions: for MIC: Mucor
[5] = Caco-2 permeability; type: in vitro ADME; conditions: human
[6] = test system: Aspergillus fumigatus; assay: Colony recovery after CLSI MIC testing (fungicidal test); type: cell-based; conditions: at MIC (2.453 μg/ml) and 2X MIC (4.906 μg/ml)
Method: Perhaps consistent with these lipid profiling data, transmission electron microscopy images of MBX-7591-treated cells reveal a loss of cellular membrane integrity, a large increase in the electron translucent cell wall, and a significant increase in electron density in the cytoplasm (Fig. S1B). These TEM images are consistent with cell death upon MBX-7591 treatment.
115 Supplementary Figure 1. MBX-7591 pre-treatment induces cell death.
116 A) Biofilms grown for 12 hours with MBX-7591 pre-treatment (PT) are more susceptible to
117 subsequent 6-hour voriconazole (VCZ) treatment. MBX-7591 PT + VCZ biofilms show higher
118 sytox staining and nuclear collapse indicative of increased cell membrane permeability and cell
119 death. B) TEM image of cross section of Aspergillus fumigatus hyphae from 24-hour biofilms
120 grown in vehicle control or 0.588 μg/ml MBX-7591. MBX-7591 induces changes in the cell wall,
121 increased vacuolization and increased cytosolic density (black arrows). C) MBX-7591 reduces
CLSI assay done as described in methods and incubated for 48 hours at
124 37°C, 5%CO2. Subsequently 100 µL of untreated control, ½ MIC, MIC and 2X MIC wells were
125 plated onto GMM and incubated at 37°C, 5%CO2 for 48h. Representative images of fungal
126 growth of 2 independent biological replicates shown.

[7] = test system: Apophysomyces spp.; assay: CLSI-based microbroth dilution MIC, spectrum of activity; type: cell-based
[8] = test system: Cryptococcus neoformans; assay: CLSI-based microbroth dilution MIC for yeast; type: cell-based; conditions: for MIC: Cryptococcus neoformans
[9] = Mammalian cell cytotoxicity (CC50); type: cell-based; conditions: human, HeLa cells (ATCC CCL-2)
Method: (§1) The half-maximal cytotoxic concentration (CC50) of each compound against HeLa cells (ATCC CCL-2) was measured as previously described ([50]). Each assay comprised three technical replicates, and each assay was repeated at least once. The mean values for each biological replicate were averaged, and the CC50 was determined using a four-parameter nonlinear curve fitting algorithm (GraphPad Prism). The average of the CC50s from two biological replicates was calculated and reported.

[10] = test system: HeLa cells (ATCC CCL-2); assay: Mammalian cell cytotoxicity (CC50); type: cell-based
Method: as §1

[11] = molecular target: T1, CYP3A4 (Homo sapiens, UniProt P08684); assay: CYP450 inhibition; type: in vitro ADME; conditions: Human Cytochrome P450 kit (BD Gentest), read-out: Human CYP3A4 inhibition (%INH at 10 µM)
T1 construct: purchased BD Gentest Corp, Woburn, MA, USA
Method: Inhibition of the CYP450 enzyme CYP3A4 by each compound at a final concentration of 10 µM was measured using a commercially available Human Cytochrome P450 kit (BD Gentest Corp, Woburn, MA, USA) according to the manufacturer’s instructions.

[12] = test system: Rhizopus delemar; assay: CLSI-based microbroth dilution MIC, spectrum of activity; type: cell-based; conditions: strain 99-880; for MIC: Rhizopus delemar
[13] = test system: A. fumigatus CEA10; assay: Fatty acid profile of 24-hour biofilms by GC-MS; type: cell-based, Aspergillus fumigatus; conditions: CEA10 24-hour biofilm; MBX-7591 0.58 µg/mL, voriconazole 0.0625 µg/mL
[14] = test system: Aspergillus flavus; assay: CLSI-based microbroth dilution MIC, spectrum of activity; type: cell-based; conditions: for MIC: Aspergillus flavus
[15] = test system: Aspergillus nidulans; assay: microbe, parasite or virus in culture; type: cell-based; conditions: strain FGSC A4
[16] = test system: Aspergillus fumigatus; assay: CLSI-based microbroth dilution MIC, A. fumigatus strains
[17] = test system: P. variotii; assay: microbe, parasite or virus in culture; type: cell-based; conditions: Paecilomyces variotii; strain MYA-3630
[18] = test system: Aspergillus fumigatus; assay: FIC checkerboard synergy assay, A. fumigatus; type: cell-based; conditions: for MIC: Aspergillus fumigatus

T1 sequence (P08684 whole entry): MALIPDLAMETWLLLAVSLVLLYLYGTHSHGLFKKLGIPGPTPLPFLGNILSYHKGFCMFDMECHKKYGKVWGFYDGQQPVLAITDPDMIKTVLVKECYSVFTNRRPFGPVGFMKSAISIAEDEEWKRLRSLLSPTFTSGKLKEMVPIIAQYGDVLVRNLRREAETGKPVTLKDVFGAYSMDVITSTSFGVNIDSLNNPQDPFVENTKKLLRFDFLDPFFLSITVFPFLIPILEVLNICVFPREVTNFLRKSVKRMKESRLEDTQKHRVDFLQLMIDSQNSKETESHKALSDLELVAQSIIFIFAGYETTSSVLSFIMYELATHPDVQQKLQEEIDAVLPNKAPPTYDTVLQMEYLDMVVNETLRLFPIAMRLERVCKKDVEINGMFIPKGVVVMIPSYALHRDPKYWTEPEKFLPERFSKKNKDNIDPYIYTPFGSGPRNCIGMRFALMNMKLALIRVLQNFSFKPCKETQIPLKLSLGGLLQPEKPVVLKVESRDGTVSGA

O=C(c1ccsc1)N1CCC(Cc2ccc(COc3ccncc3)cc2)CC1 [MBX-7591]
MIC [1]: > 32 µg/mL
half-life [2]: 40 min
MIC ([3]; read-out: MIC UTHSC, strain DI14-269): > 32 µg/mL
MIC ([3]; read-out: MIC UTHSC, strain DI14-284): 8 µg/mL (≈ 20.4 µM)
MIC ([3]; read-out: MIC UTHSC, strain DI17-143): > 32 µg/mL
MIC ([4]; CBS277, strain CBS 277.49): > 39.2 µg/mL
MIC ([4]; strain DI15-131, read-out: MIC UTHSC): > 32 µg/mL
MIC UTHSC ([4]; strain Mucor1): > 32 µg/mL
MIC UTHSC ([4]; strain Mucor2): > 32 µg/mL
efflux ratio [5]: 0.49
Papp A→B ([5]; A→B, method b66 gives Papp in cm/s): 11 ×10⁻⁶ cm/s
Papp B→A ([5]; B→A, method b66 gives Papp in cm/s): 5.6 ×10⁻⁶ cm/s
colony formation after 48 hours of treatment of conidia [6]: No colony-forming units were observed at or 2× the MIC
MIC ([7]; strain Apo1): 0.5 µg/mL (≈ 1.27 µM)
MIC ([7]; strain Apo2): 16 µg/mL (≈ 40.8 µM)
MIC ([7]; strain Apo3): 4 µg/mL (≈ 10.2 µM)
MIC ([8]; strain H99, 0% CO2, read-out: MIC 0% CO2): > 39.2 µg/mL
MIC ([8]; strain H99, 5% CO2, Table S4, read-out: MIC 5% CO2): 2.45 µg/mL (≈ 6.24 µM)
MIC ([8]; strain H99, MIC obtained under 5% CO2, Table S3): 2.45 µg/mL (≈ 6.24 µM)
MIC ([8]; strain H99, read-out: MIC UTHSC): > 32 µg/mL
MIC 0% CO2 ([8]; strain A7-35-23, 0% CO2): > 39.25 µg/mL
MIC 5% CO2 ([8]; strain A7-35-23, 5% CO2): 2.45 µg/mL (≈ 6.24 µM)
MIC 0% CO2 ([8]; strain C23, 0% CO2): > 39.25 µg/mL
MIC 5% CO2 ([8]; strain C23, 5% CO2): 2.45 µg/mL (≈ 6.24 µM)
MIC 0% CO2 ([8]; strain JEC21, 0% CO2): > 39.25 µg/mL
MIC 5% CO2 ([8]; strain JEC21, 5% CO2): 2.45 µg/mL (≈ 6.24 µM)
CC50 [9]: > 100 µM
CC50 [10]: ≥ 100 µM
inhibition at 10 µM [11]: 89%
MIC [12]: 0.31 µg/mL (≈ 0.79 µM)
MIC ([12]; read-out: MIC UTHSC): ~0.25 µg/mL (≈ 0.637 µM)
MIC UTHSC [12]: 0.25 µg/mL (≈ 0.637 µM)
C14:0 relative percentage of fatty acids [13]: 0.19 ± 0.057
C15:0 relative percentage of fatty acids [13]: 0.59 ± 0.034
C16:0 (palmitic acid) relative percentage of fatty acids [13]: 23.30 ± 0.48
C16:1n7 relative percentage of fatty acids [13]: 0.68 ± 0.040
C17a relative percentage of fatty acids [13]: 0.15 ± 0.025
C18:0 (stearic acid) relative percentage of fatty acids [13]: 4.44 ± 0.95
C18:1n7 relative percentage of fatty acids [13]: 1.30 ± 0.18
C18:1n9 (oleic acid) relative percentage of fatty acids [13]: 20.48 ± 1.30
C18:2n6 relative percentage of fatty acids [13]: 48.87 ± 0.91
MIC ([14]; ATCC204304, strain ATCC 204304): > 32 µg/mL
MIC ([14]; strain Aflav1): > 32 µg/mL
MIC UTHSC ([14]; strain Aflav2): > 32 µg/mL
MIC [15]: > 39.2 µg/mL
effect of CO2 levels on A. fumigatus susceptibility [16]: not impacted by CO2 levels
MIC ([16]; Aspergillus fumigatus, read-out: MIC (activity against various A. fumigatus strains)): ~2 µg/mL (≈ 5.1 µM)
MIC [17]: > 32 µg/mL
average FIC [18]: 0.5
MIC ([18]; strain 08-19-02-61, alone): 2.45 µg/mL
MIC ([18]; strain 08-31-08-91, alone): 4.91 µg/mL
MIC ([18]; strain F11628, alone): 2.45 µg/mL
MIC ([18]; strain F15390 (caf8), alone): 2.45 µg/mL
FIC value ([18]; CEA10, MBX-7591 + 7.81 μg/ml OA): 4
FIC value ([18]; CEA10, MBX-7591 + 15.63 μg/ml OA): 8
FIC value ([18]; CEA10, MBX-7591 + 31.25 μg/ml OA): > 8
FIC value ([18]; strain 08-19-02-61, MBX-7591 + VCZ): 0.5
FIC value ([18]; strain 08-31-08-91, MBX-7591 + VCZ): 0.5
FIC score ([18]; strain CEA10, MBX-7591 + FLC): 0.312
FIC value ([18]; strain CEA10, MBX-7591 + VCZ): 0.375–0.5
FIC value ([18]; strain F11628, MBX-7591 + VCZ): 0.3125–0.375
FIC value ([18]; strain F15390 (caf8), MBX-7591 + VCZ): 0.5

Source: PMC11253624, “Unsaturated fatty acid perturbation combats emerging triazole antifungal resistance in the human fungal pathogen Aspergillus fumigatus” (mBio, 2024)
